# Data as given in patent publication US20240358015A1, “HERBICIDAL COMPOSITIONS” (Agrematch Ltd., priority 2021, published 2024).
# Tests used:
# Setaria viridis = assay: Growth-chamber post-emergence herbicidal assay (Example 2); format: in vivo; settings: 1000 g/ha, 3-4 days after application
# Protocol: Herbicidal activity was determined by post-emergence application on 8-day old plants (weeds) of the Amaranthus palmeri and Setaria viridis species that were grown at 16 hours/8 hours day/night cycles at 30° C./25° C., respectively. Leaf stage was typically 4-6 for A. palmeri and 3-4 for S. viridis.
# In each treatment, 2-3 pots, each containing about 5 plants each (for Setaria viridis), and one 9-pack, containing about 9 plants (for Amaranthus palmeri), were sprayed using a VL-SET Paasche Airbrush with 0.3-1.5 ml solution containing 0.125-2 mg/ml of a tested compound, which is equivalent to about 125-2000 g/ha.
# (§1) Damage assessment: Herbicidal activity was assessed and scored 3-4 days after application by visual inspection of the plants in comparison to plants treated with the formulation alone (with no active ingredient) as control. Activity score is in the range of 0 to 100, where 0 represents no herbicidal activity like control plants and 100 represents the maximal herbicidal activity (i.e., total death of the plant).
# Herbicidal activity scores 3-4 days after application are presented Table 3 below.
# A. palmeri = assay: Greenhouse post-emergence assay (Example 3); format: in vivo, Amaranthus palmeri; settings: 4% TWEEN 20, 0.05 M Tris buffer pH 8, 0.05% Break-Thru
# Protocol: Plant seeds were sowed in 9 cm×9 cm×10 cm flowerpots. Timing of sowing (days before treatment application) for each plant is detailed in Table 7 below. 5 flowerpots of each species were used for each treatment. Seeds were sowed in wet clay soil and then covered with about 1 cm layer of dry clay soil.
# Irrigation: Irrigation was carried out using VIBRONET-UD (NETAFIM) sprinklers hanging upside down one meter above the flowerpots. Water flow capacity-50 liters per hour. Irrigation was carried out three times a day for 10 minutes.
# Treatments: Table 8 presents generally the protocols of the various treatments used in these assays.
# (§2) 57.6 ml of 0.05 M Tris buffer pH=8 were added to 150 mg of Compound 1 and the mixture was stirred using a magnetic stirrer. 2.4 ml of TWEEN®20 were added and the mixture was stirred using a magnetic stirrer to obtain a 4% TWEEN®20-containing solution. 30 μl of Break-Thru were added to obtain a 0.05% Break-Thru-containing solution.
# as §2, with “225” for “150”
# Plants were sprayed using a DeVreis Generation 4 Research Track Sprayer with a TEE JET nozzle 80015EVS. Spraying volume was 200 L/ha using the following sprayer parameters: • Spray speed-2 KMH • Spray length-1.50 m • Spray pressure-42 PSI
# Each plant was sprayed twice, yielding a total spraying volume of 400 L/ha. Nozzle was located 55 cm above pots ground level.
# A. palmeri, S. viridis and S. nigrum plants were elevated with 8 cm tray, Z. mays plants were elevated with 3 cm tray in order to achieve a similar spraying height for all plant's foliage.
# Plants were scored by visual inspection of symptoms, on a scale of 0-100, where 0 represents no herbicidal activity like control plants and 100 represents the maximal herbicidal activity (i.e., total death of the plant). Each pot was scored separately. DAT=days after treatment
# Amaranthus palmeri = assay: Net-house post-emergence assay (Example 6); format: in vivo; settings: 750 g/ha, 0.05% MIPA
# Protocol: Post-emergence herbicidal activity was tested on Amaranthus palmeri weeds species that were grown in a net-house. Average daily minimum and maximum temperatures during the assay were 20.5° C./[…], respectively. Leaf stage at the time of application was 3-4. In each treatment, 3 flowerpots (7 cm×7 cm×6 cm) containing about 3-6 plants, were sprayed using a VL-SET Paasche Airbrush with a […] 0.75 mg/ml of the tested compound, which is equivalent to 750 g/ha.
# as §1, with “1-12” for “3-4”
# A. retroflexus = assay: Growth-chamber post-emergence assay on various weed species (Example 7); format: in vivo; settings: 500 g/ha; 0.8% MIPA, 0.25% Genapol, 1% AGNIQUE, 0.05% Ca-LAS, 0.02% BSU, 0.05% Break-Thru
# Protocol: (§3) Herbicidal activity of Compound 1 was determined by post-emergence application on various weed species. 8-14 day old plants (weeds) were grown at 16 hours/8 hours day/night cycles at 30° C./25° C., respectively. Leaf stage was typically 2-6.
# (§4) In each treatment, 3 pots (either 7×7 or 8×12 cm), containing about 3-6 plants each, were sprayed using a VL-SET Paasche Airbrush with a 1-1.5 ml-solution containing 0.5-1.5 mg/ml of the tested compound, which is equivalent to about 500-1500 g/ha.
# as §1
# T. vulgare = assay: as above; format: in vivo; settings: 500 g/ha; 0.8% MIPA, 0.25% Genapol, 1% AGNIQUE, 0.05% Ca-LAS, 0.02% BSU, 0.05% Break-Thru
# Protocol: as §3, §4, §1
# X. strumarium = assay: as above; format: in vivo, Xanthium strumarium; settings: 1500 g/ha; 0.8% MIPA, 0.25% Genapol, 2% HASTEN, 0.05% Break-Thru
# Protocol: as §3, §4, §1
# L. multiflorum = assay: as above; format: in vivo, Lolium multiflorum; settings: 1500 g/ha; 0.8% MIPA, 0.25% Genapol, 2% HASTEN, 0.05% Break-Thru
# Protocol: as §3, §4, §1
# A. theophrasti = assay: as above; format: in vivo, Abutilon theophrasti; settings: 1500 g/ha; 0.8% MIPA, 0.25% Genapol, 2% HASTEN, 0.05% Break-Thru
# Protocol: as §3, §4, §1
compound,measurement,setting,value
"O=C(O)c1cc(O)c2c(c1)C(=O)c1cccc(O)c1C2=O [Compound 1, Rhein]",Herbicidal activity score,"Setaria viridis; 1 mg/ml in 0.015% Ammonium hydroxide, 0.25% Adsee",10
same,Herbicidal activity score,"Setaria viridis; 1 mg/ml in 0.015% Ammonium hydroxide, 0.25% Genapol X-080",70
same,Herbicidal activity score,"Setaria viridis; 1 mg/ml in 0.015% Ammonium hydroxide, 0.7% Sodium Lauryl Ether sulfate",100
same,Herbicidal activity score,"Setaria viridis; 1 mg/ml in 0.015% Ammonium hydroxide, 1% AGNIQUE, 0.05% Ca-LAS, 0.02% BSU",70
same,Herbicidal activity score,"Setaria viridis; 1 mg/ml in 0.015% Ammonium hydroxide, 2% Tween 20, scale 0-100",80
same,Herbicidal activity score,"Setaria viridis; 1 mg/ml in 0.037% MIPA, 0.25% Adsee",40
same,Herbicidal activity score,"Setaria viridis; 1 mg/ml in 0.037% MIPA, 0.25% Genapol X-080",100
same,Herbicidal activity score,"Setaria viridis; 1 mg/ml in 0.037% MIPA, 0.7% Sodium Lauryl Ether sulfate",100
same,Herbicidal activity score,"Setaria viridis; 1 mg/ml in 0.037% MIPA, 1% AGNIQUE, 0.05% Ca-LAS, 0.02% BSU",70
same,Herbicidal activity score,"Setaria viridis; 1 mg/ml in 0.037% MIPA, 2% Tween 20",100
same,Activity Score,"Setaria viridis; 2% TWEEN 20, 5.2 mM Ammonium hydroxide, 0.05% Break-Thru, scale 0-100",90
same,"Score by visual inspection of symptoms (average ± standard deviation, 5 pots)","A. palmeri; 1000 g/ha (2.5 mg/ml, 400 L/ha), 1 DAT, scale 0-100",22 ± 13
same,"Score by visual inspection of symptoms (average ± standard deviation, 5 pots)","A. palmeri; 1000 g/ha (2.5 mg/ml, 400 L/ha), 3 DAT",54 ± 11.4
same,"Score by visual inspection of symptoms (average ± standard deviation, 5 pots)","A. palmeri; 1000 g/ha (2.5 mg/ml, 400 L/ha), 6 DAT",36 ± 8.9
same,"Score by visual inspection of symptoms (average ± standard deviation, 5 pots)","A. palmeri; 1000 g/ha (2.5 mg/ml, 400 L/ha), 8 DAT",34 ± 11.4
same,"Score by visual inspection of symptoms (average ± standard deviation, 5 pots)","A. palmeri; 1000 g/ha (2.5 mg/ml, 400 L/ha), 15 DAT",20 ± 15.8
same,"Score by visual inspection of symptoms (average ± standard deviation, 5 pots)","A. palmeri; 1500 g/ha (3.75 mg/ml, 400 L/ha), 1 DAT",38 ± 29.5
same,"Score by visual inspection of symptoms (average ± standard deviation, 5 pots)","A. palmeri; 1500 g/ha (3.75 mg/ml, 400 L/ha), 3 DAT",90 ± 9.4
same,"Score by visual inspection of symptoms (average ± standard deviation, 5 pots)","A. palmeri; 1500 g/ha (3.75 mg/ml, 400 L/ha), 6 DAT",87 ± 9.7
same,"Score by visual inspection of symptoms (average ± standard deviation, 5 pots)","A. palmeri; 1500 g/ha (3.75 mg/ml, 400 L/ha), 8 DAT",83 ± 14
same,"Score by visual inspection of symptoms (average ± standard deviation, 5 pots)","A. palmeri; 1500 g/ha (3.75 mg/ml, 400 L/ha), 15 DAT",66 ± 29.7
same,Herbicidal activity score,"Amaranthus palmeri; 2% Hasten, 0.05% Break-Thru, 1 DAT",95
same,Herbicidal activity score,"Amaranthus palmeri; 2% Hasten, 0.05% Break-Thru, 3 DAT",95
same,Herbicidal activity score,"Amaranthus palmeri; 2% Hasten, 0.05% Break-Thru, 5 DAT",90
same,Herbicidal activity score,"Amaranthus palmeri; 2% Hasten, 0.05% Break-Thru, 7 DAT",90
same,Herbicidal activity score,"Amaranthus palmeri; 2% Hasten, 0.05% Break-Thru, 12 DAT",80
same,Herbicidal activity score,"Amaranthus palmeri; 2% TWEEN20, 0.05% Break-Thru, 1 DAT, scale 0-100",95
same,Herbicidal activity score,"Amaranthus palmeri; 2% TWEEN20, 0.05% Break-Thru, 3 DAT",100
same,Herbicidal activity score,"Amaranthus palmeri; 2% TWEEN20, 0.05% Break-Thru, 5 DAT",100
same,Herbicidal activity score,"Amaranthus palmeri; 2% TWEEN20, 0.05% Break-Thru, 7 DAT",100
same,Herbicidal activity score,"Amaranthus palmeri; 2% TWEEN20, 0.05% Break-Thru, 12 DAT",100
same,Herbicidal activity score,A. retroflexus,85
same,Herbicidal activity score,T. vulgare,10
same,Herbicidal activity score,X. strumarium,90
same,Herbicidal activity score,L. multiflorum,50
same,Herbicidal activity score,A. theophrasti,40
